Assay results as given in PMC6718736, “Validation of in vitro methods for human cytochrome P450 enzyme induction: Outcome of a multi-laboratory study” (Toxicology in Vitro, 2019).
Read-outs that look alike come from different tables or passages of the source.

Key:
CYP = CYP isoforms induced; ref Abadie et al. (2009), Richert et al. (2010), Preissner et al. (2010), Hoffmann et al. (2014); cited from earlier work
CYP3A4 [1] = settings: cited from earlier work
CYP1A2 [2] = assay: CYP1A2 enzyme induction assay in cryopreserved HepaRG cells (phenacetin probe, LC/MS); assay type: in vitro ADME, human; settings: for Prediction in vivo inducer: Cmax/F2 >0.5 criterion; for Assigned classification CYP1A2: HepaRG
CYP2B6 [3] = assay: CYP2B6 enzyme induction assay in cryopreserved primary human hepatocytes (PHH); assay type: in vitro ADME; settings: for Assigned classification CYP2B6: PHH;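 as to Assigned classification CYP2B6: code 1 means positive inducer and 0 means non-inducer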
CYP2B6 [4] = assay: CYP2B6 enzyme induction assay in cryopreserved HepaRG cells (bupropion probe, LC/MS); assay type: in vitro ADME, human; settings: for Prediction in vivo inducer: Cmax/F2 >0.5 criterion; for Assigned classification CYP2B6: HepaRG
CYP3A4 [5] = assay: CYP3A4 enzyme induction assay in cryopreserved HepaRG cells (midazolam probe, LC/MS); assay type: in vitro ADME, human; settings: for Assigned classification CYP3A4: HepaRG
CYP1A2 [6] = assay: CYP1A2 enzyme induction assay in cryopreserved primary human hepatocytes (PHH); assay type: in vitro ADME; settings: for Prediction in vivo inducer: Cmax/F2 >0.5 criterion; for Assigned classification CYP1A2: PHH;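 as to Assigned classification CYP1A2: code 1 means positive inducer and 0 means non-inducer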
CYP3A4 [7] = assay: CYP3A4 enzyme induction assay in cryopreserved primary human hepatocytes (PHH); settings: for Assigned classification CYP3A4: PHH
[8] = cited from earlier work

Prediction in vivo inducer (CYP1A2 [2]; CYP1A2, HepaRG cells, listed as Bosentan): Yes
Prediction in vivo inducer (CYP1A2 [2]; CYP1A2, HepaRG cells, listed as bosentan): CYP1A2 induction would be expected
F2 (CYP1A2 [2]; CYP1A2, HepaRG cells, in vitro concentration producing 2-fold induction): 2.60 to 7.80 µM
Induction in vitro (CYP1A2 [2]; CYP1A2, HepaRG cells, positive in one batch in each of the three laboratories): Yes
Assigned classification CYP1A2 (CYP1A2 [2]; Lab 1, batch 20): 1
Assigned classification CYP1A2 (CYP1A2 [2]; Lab 1, batch 35): 1
Assigned classification CYP1A2 (CYP1A2 [2]; Lab 1, batch 36): 1
Assigned classification CYP1A2 (CYP1A2 [2]; Lab 2, batch 20): 1
Assigned classification CYP1A2 (CYP1A2 [2]; Lab 2, batch 35): 1
Assigned classification CYP1A2 (CYP1A2 [2]; Lab 2, batch 36): 1
Assigned classification CYP1A2 (CYP1A2 [2]; Lab 3, batch 20): 1
Assigned classification CYP1A2 (CYP1A2 [2]; Lab 3, batch 35): 1
Assigned classification CYP1A2 (CYP1A2 [2]; Lab 3, batch 36): 0
F2 (CYP2B6 [3]; CYP2B6, PHH): 5.85 µM
Induction in vitro (CYP2B6 [3]; CYP2B6, PHH): Yes
Prediction in vivo inducer (CYP2B6 [3]; CYP2B6, PHH): Yes
Assigned classification CYP2B6 (CYP2B6 [3]; Lab 1, batch 0 6 A): 1
Assigned classification CYP2B6 (CYP2B6 [3]; Lab 1, batch 4 0 8): 1
Assigned classification CYP2B6 (CYP2B6 [3]; Lab 1, batch 8 0 8): 1
Assigned classification CYP2B6 (CYP2B6 [3]; Lab 2, batch 0 6 A): 1
Assigned classification CYP2B6 (CYP2B6 [3]; Lab 2, batch 4 0 8): 0
Assigned classification CYP2B6 (CYP2B6 [3]; Lab 2, batch 8 0 8): 1
Assigned classification CYP2B6 (CYP2B6 [3]; Lab 3, batch 0 6 A): 1
Assigned classification CYP2B6 (CYP2B6 [3]; Lab 3, batch 4 0 8): 1
Assigned classification CYP2B6 (CYP2B6 [3]; Lab 3, batch 8 0 8): 1
Prediction in vivo inducer (CYP2B6 [4]; CYP2B6, HepaRG cells, listed as Bosentan): Yes
Prediction in vivo inducer (CYP2B6 [4]; CYP2B6, HepaRG cells, listed as bosentan): predicted as positive inducers
F2 (CYP2B6 [4]; CYP2B6, HepaRG cells, in vitro concentration producing 2-fold induction): 2.60 to 7.80 µM
Induction in vitro (CYP2B6 [4]; CYP2B6, HepaRG cells, positive in one batch in each of the three laboratories): Yes
Assigned classification CYP2B6 (CYP2B6 [4]; Lab 1, batch 20): 1
Assigned classification CYP2B6 (CYP2B6 [4]; Lab 1, batch 35): 1
Assigned classification CYP2B6 (CYP2B6 [4]; Lab 1, batch 36): 0
Assigned classification CYP2B6 (CYP2B6 [4]; Lab 2, batch 20): 1
Assigned classification CYP2B6 (CYP2B6 [4]; Lab 2, batch 35): 0
Assigned classification CYP2B6 (CYP2B6 [4]; Lab 2, batch 36): 0
Assigned classification CYP2B6 (CYP2B6 [4]; Lab 3, batch 20): 0
Assigned classification CYP2B6 (CYP2B6 [4]; Lab 3, batch 35): 1
Assigned classification CYP2B6 (CYP2B6 [4]; Lab 3, batch 36): 0
F2 (CYP3A4 [5]; CYP3A4, HepaRG cells): 0.29 µM
Induction in vitro (CYP3A4 [5]; CYP3A4, HepaRG cells): Yes
Prediction in vivo inducer (CYP3A4 [5]; CYP3A4, HepaRG cells): Yes
Assigned classification CYP3A4 (CYP3A4 [5]; Lab 1, batch 20): 1
Assigned classification CYP3A4 (CYP3A4 [5]; Lab 1, batch 35): 1
Assigned classification CYP3A4 (CYP3A4 [5]; Lab 1, batch 36): 1
Assigned classification CYP3A4 (CYP3A4 [5]; Lab 2, batch 20): 1
Assigned classification CYP3A4 (CYP3A4 [5]; Lab 2, batch 35): 1
Assigned classification CYP3A4 (CYP3A4 [5]; Lab 2, batch 36): 1
Assigned classification CYP3A4 (CYP3A4 [5]; Lab 3, batch 20): 1
Assigned classification CYP3A4 (CYP3A4 [5]; Lab 3, batch 35): 1
Assigned classification CYP3A4 (CYP3A4 [5]; Lab 3, batch 36): 1
Prediction in vivo inducer (CYP1A2 [6]; CYP1A2, PHH, listed as Bosentan): No
Prediction in vivo inducer (CYP1A2 [6]; CYP1A2, PHH, listed as bosentan): non-inducers
Induction in vitro (CYP1A2 [6]; CYP1A2, PHH, positive in one donor in each of the three laboratories): No
Assigned classification CYP1A2 (CYP1A2 [6]; Lab 1, batch 0 6 A): 0
Assigned classification CYP1A2 (CYP1A2 [6]; Lab 1, batch 4 0 8): 0
Assigned classification CYP1A2 (CYP1A2 [6]; Lab 1, batch 8 0 8): 0
Assigned classification CYP1A2 (CYP1A2 [6]; Lab 2, batch 0 6 A): 0
Assigned classification CYP1A2 (CYP1A2 [6]; Lab 2, batch 4 0 8): 0
Assigned classification CYP1A2 (CYP1A2 [6]; Lab 2, batch 8 0 8): 1
Assigned classification CYP1A2 (CYP1A2 [6]; Lab 3, batch 0 6 A): 1
Assigned classification CYP1A2 (CYP1A2 [6]; Lab 3, batch 4 0 8): 0
Assigned classification CYP1A2 (CYP1A2 [6]; Lab 3, batch 8 0 8): 0
F2 (CYP3A4 [7]; CYP3A4, PHH): 0.65 to 1.95 µM
Induction in vitro (CYP3A4 [7]; CYP3A4, PHH): Yes
Prediction in vivo inducer (CYP3A4 [7]; CYP3A4, PHH): Yes
Assigned classification CYP3A4 (CYP3A4 [7]; Lab 1, batch 0 6 A): 1
Assigned classification CYP3A4 (CYP3A4 [7]; Lab 1, batch 4 0 8): 1
Assigned classification CYP3A4 (CYP3A4 [7]; Lab 1, batch 8 0 8): 1
Assigned classification CYP3A4 (CYP3A4 [7]; Lab 2, batch 0 6 A): 1
Assigned classification CYP3A4 (CYP3A4 [7]; Lab 2, batch 4 0 8): 1
Assigned classification CYP3A4 (CYP3A4 [7]; Lab 2, batch 8 0 8): 1
Assigned classification CYP3A4 (CYP3A4 [7]; Lab 3, batch 0 6 A): 1
Assigned classification CYP3A4 (CYP3A4 [7]; Lab 3, batch 4 0 8): 1
Assigned classification CYP3A4 (CYP3A4 [7]; Lab 3, batch 8 0 8): 1
SMILES: COc1ccccc1Oc1c(NS(=O)(=O)c2ccc(C(C)(C)C)cc2)nc(-c2ncccn2)nc1OCCO [Bosentan hydrate]
CYP induction in vitro (human hepatocytes) (CYP): CYP3A4
Induction in vivo (CYP3A4 [1]; CYP3A4, human in vivo reference classification (Table 11)): Yes
CYP induction in vivo literature reference: CYP3A4 (CYP3A4 [1]; human in vivo, CYP named without remark = induced, ref references in the cell, Washington University database, Hoffmann et al. (2014), Pelkonen et al. (2008), Hukkanen et al. (2012)): CYP1A2 NO studies CYP2B6 NO studies CYP 3A4 ([Weber et al., 1999a], [Weber et al., 1999b]; [van Giersbergen et al., 2002a], [van Giersbergen et al., 2002b]; Dingemanse and van Giersbergen, 2004)
Cmax ([8]; human in vivo plasma concentration, normal dose): 5.8 µM
Cmax ([8]; human in vivo, normal dose (Table 10)): 5.8 µM
